Experiments:
Escherichia coli [1] = experiment: Inhibition of Escherichia coli DH5alpha pBSK-2 DNA cleavage in HEPES buffer at pH 8.0 after 8 hrs by agarose gel electrophoresis in presence of distamycin; parameters: concentration or dose not given beside the values
Escherichia coli [2] = experiment: Induction of Escherichia coli DH5alpha pBSK-2 DNA cleavage in PIPES buffer at pH 7.0 after 16 hrs by agarose gel electrophoresis
Escherichia coli [3] = experiment: Inhibition of Escherichia coli DH5alpha pBSK-2 DNA cleavage in HEPES buffer at pH 8.0 after 8 hrs by agarose gel electrophoresis in presence of DMSO; parameters: concentration or dose not given beside the values
Escherichia coli [4] = experiment: Ratio of Kcat to Km for induction of Escherichia coli DH5alpha pBSK-2 DNA cleavage in PIPES buffer at pH 7.0 after 16 hrs by agarose gel electrophoresis
Escherichia coli [5] = experiment: Ratio of Kcat to Km for induction of Escherichia coli DH5alpha pBSK-2 DNA cleavage in HEPES buffer at pH 8.0 after 16 hrs by agarose gel electrophoresis
Escherichia coli [6] = experiment: Induction of Escherichia coli DH5alpha pBSK-2 DNA cleavage in HEPES buffer at pH 8.0 after 16 hrs by agarose gel electrophoresis
Escherichia coli [7] = experiment: Induction of Escherichia coli DH5alpha pBSK-2 DNA cleavage in CHES buffer at pH 9.0 after 16 hrs by agarose gel electrophoresis
Escherichia coli [8] = experiment: Ratio of Kcat to Km for induction of Escherichia coli DH5alpha pBSK-2 DNA cleavage in CHES buffer at pH 9.0 after 16 hrs by agarose gel electrophoresis
Escherichia coli [9] = experiment: Inhibition of Escherichia coli DH5alpha pBSK-2 DNA cleavage in CHES buffer at pH 9.0 after 8 hrs by agarose gel electrophoresis in presence of glycerol; parameters: scale not given: the % may be the effect or the level left

| Activity (Escherichia coli [1]) | Km (Escherichia coli [2]) | kcat (Escherichia coli [2]) | Activity (Escherichia coli [3]) | kcat/Km (Escherichia coli [4]) | kcat/Km (Escherichia coli [5]) | Km (Escherichia coli [6]) | kcat (Escherichia coli [6]) | Km (Escherichia coli [7]) | kcat (Escherichia coli [7]) | kcat/Km (Escherichia coli [8]) | Activity (Escherichia coli [9]) | Structure (SMILES) |
| --- | --- | --- | --- | --- | --- | --- | --- | --- | --- | --- | --- | --- |
| 2% | 140 µM | 141 ×10⁻³ /hr | 8% | 0.28 M⁻¹ s⁻¹ | – | – | – | – | – | – | – | CN(C)c1ccc(/C=N/O)cc1 |
| 14% | – | – | 12% | – | 0.158 M⁻¹ s⁻¹ | 140 µM | 79 ×10⁻³ /hr | – | – | – | – | CN(C)c1ccc(CNO)cc1 |
| 10% | – | – | 14% | – | 0.398 M⁻¹ s⁻¹ | 110 µM | 157 ×10⁻³ /hr | – | – | – | – | ON(Cc1ccccc1)Cc1ccccc1 |
| 61% | – | – | 73% | – | – | – | – | 70 µM | 424 ×10⁻³ /hr | 1.68 M⁻¹ s⁻¹ | 71% | NOCc1ccccc1 |
| 20% | – | – | 16% | – | 0.869 M⁻¹ s⁻¹ | 60 µM | 187 ×10⁻³ /hr | – | – | – | – | ONCc1ccc2c(c1)OCO2 |

— ChEMBL document CHEMBL1156584, “Metal-free artificial nucleases based on simple oxime and hydroxylamine scaffolds” (Bioorg Med Chem Lett, 2008)
